Where “and” joins values, the source holds several entries; their conditions need not be identical. Equal values may be shown once.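 Method: 48-hour compound exposure of cells in 96-well plates, five concentrations, linear interpolation of endpoints. The concentration for 50% growth inhibition is given as GI50. At the TGI there is no net growth.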
Legend:
Experiment in all cases: growth of human tumour cells (NCI), 48 h
[1] = tested on: SNB-19 CNS
[2] = tested on: SR leukemia
[3] = tested on: UO-31 renal
[4] = tested on: KM12 colon
[5] = tested on: HL-60(TB) leukemia
[6] = tested on: A549 NSCLC
[7] = tested on: SK-MEL-28 melanoma
[8] = tested on: SN12C renal
[9] = tested on: SNB-75 CNS
[10] = tested on: HT29 colon

| Compound | TGI [1] | TGI [2] | TGI [3] | TGI [4] | TGI [5] | TGI [6] | TGI [7] | TGI [8] | TGI [9] | TGI [10] | GI50 [1] | GI50 [2] | GI50 [3] | GI50 [4] | GI50 [5] | GI50 [6] | GI50 [7] | GI50 [8] | GI50 [9] | GI50 [10] |
| --- | --- | --- | --- | --- | --- | --- | --- | --- | --- | --- | --- | --- | --- | --- | --- | --- | --- | --- | --- | --- |
| COc1ccc(OC)c(/C=N/N=C2\C(=O)Nc3c(Cl)cc(Cl)cc32)c1 | > 100 µM | > 100 µM | > 100 µM | > 100 µM | > 100 µM | > 100 µM | > 100 µM | > 100 µM | 19.7 µM | > 100 µM | – | – | – | – | – | – | – | – | – | – |
| c1ccc(/C(=N\Nc2ccc3ccccc3n2)c2ccccn2)cc1 | > 59.3 µM | 1.14 µM | 4.89 µM | 13.5 µM | 0.775 µM | > 36.2 µM | 39 µM | 25.6 µM | > 85.2 µM | 26.1 µM | 1.29 µM | 0.246 µM | 0.361 µM | 0.989 µM | 0.235 µM | 1.11 µM | 2.66 µM | 0.507 µM | 2.56 µM | 0.608 µM |
| COc1cc2c(Cc3cc(OCc4ccccc4)ccc3N)nccc2c(OC)c1OC | > 10 µM | > 10 µM | > 10 µM | > 10 µM | > 10 µM | > 10 µM | > 10 µM | > 10 µM | > 10 µM | > 10 µM | – | – | – | – | – | – | – | – | – | – |
| CN(C)CC1=Nc2cccc3cccc(c23)N1 | > 100 µM | 84.3 µM | 23 µM | 59.3 µM | 45.2 µM | > 100 µM | 49.1 µM | 31.8 µM | 30.4 µM | 53.7 µM | – | – | – | – | – | – | – | – | – | – |
| COc1ccc2c(c1OC)C(=O)O[C@@H]2[C@H]1c2c(c(Br)c3c(c2OC)OCO3)CCN1C | > 100 µM | > 100 µM | > 100 µM | > 100 µM | > 100 µM | > 100 µM | > 100 µM | > 100 µM | > 100 µM | > 100 µM | 75.9 µM | 0.918 µM | > 100 µM | 4.49 µM | 1.82 µM | 8.57 µM | > 100 µM | > 100 µM | 93.3 µM | 47 µM |
| Cc1cc(Cl)ccc1Nc1nc(C(F)(F)F)ccc1C(=O)Nc1cccc(C(F)(F)F)c1 | 15.8 µM | 8.28 µM | 16 µM | 12.1 µM | 4.67 µM | 18 µM | 16.6 µM | 11.6 µM | 11.5 µM | 10.8 µM | 4.45 µM | 2.56 µM | 3.71 µM | 2.1 µM | 2.06 µM | 3.4 µM | 4.79 µM | 3.23 µM | 3.41 µM | 3.07 µM |
| CCc1nc(N)nc(N)c1C#CC(C)c1cc(-c2ccnc(C)c2)c2oc(C)nc2c1 (centres undefined) | 12.1 µM | > 53.9 µM | 11.5 µM | 10.9 µM | 2.22 µM | 11.7 µM | 14.3 µM | 11.4 µM | 3.78 µM | 7.74 µM | < 0.0114 µM | < 0.0342 µM | 0.0181 µM | 0.0201 µM | < 0.01 µM | < 0.01 µM | 0.106 µM | < 0.0145 µM | 0.278 µM | < 0.01 µM |
| c1ccc2c(CN3CCC(C4CCN(Cc5cccc6ccccc56)CC4)CC3)cccc2c1 | > 100 µM | – | 16.2 µM and > 100 µM | 33.7 µM and > 100 µM | 4.5 µM and 26.1 µM | > 100 µM | 2.85 µM and 8.19 µM | > 100 µM | – | 11.7 µM and 11.2 µM | 40.1 µM and > 100 µM | 1.47 µM and 10.2 µM | 3.84 µM and 29.4 µM | 10.7 µM and 33.5 µM | – | – | 1.48 µM and 3.1 µM | – | 2.77 µM and > 27.7 µM | – |

From PubChem BioAssay (NCI)
